Assay: Particle size measurement by dynamic light scattering
Assay type: physicochemical
Conditions: steps (a) to (e) without palmitoyl-L-carnitine chloride
Description: The particle size of particles contained in the nonaqueous composition for external use on the skin immediately after preparation was measured by the dynamic light scattering method.
Specifically, the measurement was performed on the number mode using a nanoparticle analysis system (Zetasizer Nano ZSP model manufactured by Malvern Instruments Ltd.).

Substance: sucrose erucic acid ester
- Particle size of composition containing particles of the surfactant alone: about 2.5 nm

Source: patent US20210361539A1, “NONAQUEOUS COMPOSITION FOR EXTERNAL USE ON SKIN AND METHOD FOR PRODUCING THE SAME” (CHANEL PARFUMS BEAUTE, priority 2017, published 2021)
